Measurements from patent US20240116985A1, “STAPLED PEPTIDES AND METHODS THEREOF” (priority 2020, published 2024).

How the values were obtained:
[1] = molecular target: T1, full-length beta-Catenin (Uniprot ID P35222) (Homo sapiens, UniProt P35222); assay: Fluorescence polarization IC50 (beta-catenin / 5FAM-TCF4 10-53 competition); format: binding; conditions: fluorescence polarization; read-out: beta-Catenin FP IC50
T1 construct: 10 nM full-length beta-Catenin (Uniprot ID P35222)
T1 sequence (P35222 1-781): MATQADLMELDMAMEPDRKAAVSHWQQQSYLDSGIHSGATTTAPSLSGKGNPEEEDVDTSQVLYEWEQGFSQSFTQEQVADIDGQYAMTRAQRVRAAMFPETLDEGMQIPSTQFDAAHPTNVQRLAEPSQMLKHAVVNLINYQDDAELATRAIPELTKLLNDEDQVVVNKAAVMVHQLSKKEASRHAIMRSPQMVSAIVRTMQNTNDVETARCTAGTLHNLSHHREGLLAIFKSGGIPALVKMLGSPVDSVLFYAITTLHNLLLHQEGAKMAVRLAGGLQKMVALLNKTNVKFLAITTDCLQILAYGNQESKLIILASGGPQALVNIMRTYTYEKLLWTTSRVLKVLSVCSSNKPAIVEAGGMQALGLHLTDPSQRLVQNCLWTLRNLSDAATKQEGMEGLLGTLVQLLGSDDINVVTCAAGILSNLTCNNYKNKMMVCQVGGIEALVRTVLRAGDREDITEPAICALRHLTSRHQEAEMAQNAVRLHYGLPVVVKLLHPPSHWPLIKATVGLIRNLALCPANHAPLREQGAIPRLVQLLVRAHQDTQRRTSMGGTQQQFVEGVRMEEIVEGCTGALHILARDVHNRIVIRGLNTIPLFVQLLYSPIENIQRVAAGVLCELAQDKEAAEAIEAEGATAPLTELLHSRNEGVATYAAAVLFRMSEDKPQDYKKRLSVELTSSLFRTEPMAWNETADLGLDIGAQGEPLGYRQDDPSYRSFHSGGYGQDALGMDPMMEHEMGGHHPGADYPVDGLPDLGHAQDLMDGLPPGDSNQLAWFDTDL

[2] = molecular target: T2, beta-catenin/TCF4 engagement (Homo sapiens, UniProt P35222); assay: Nano-BRET target engagement assay (B-cat-Halo & TCF4-Luc in HEK293 cells); format: cell-based; conditions: absolute IC50; read-out: NanoBRET Abs IC50
T2 construct: expressed in transfected cells; host or cells: HEK293
T2 sequence (P35222 1-781): T1 sequence (P35222 1-781)

| SMILES | IC50 [1] | IC50 [2] |
| --- | --- | --- |
| CC(=O)N1CCC[C@]12CC=CCCCC1(CCCC=CCCCCCC[C@@](C)(C(=O)N[C@@H](Cc3ccccc3)C(=O)N[C@@H](Cc3csc4ccccc34)C(=O)N[C@@H](CCC(N)=O)C(N)=O)NC(=O)[C@H](CC(C)C)NC(=O)[C@H](Cc3ccccc3)NC(=O)[C@H](C)NC(=O)[C@H](C)NC(=O)[C@H](CCC(=O)O)NC(=O)[C@H](CC(=O)O)NC1=O)NC(=O)[C@H](CO)NC(=O)[C@H](CC(=O)O)NC2=O (stereo partly drawn) [I-1528, Ac-PL3-Asp-Ser-B5-Asp-Glu-Ala-Ala-Phe-Leu-S8-Phe-BztA-Gln-NH2] | 102 nM | 31400 nM |
| CC(=O)N1CCC[C@]12CC=CCCCC1(CCCC=CCCCCCC[C@@](C)(C(=O)N[C@@H](Cc3ccccc3)C(=O)N[C@@H](Cc3csc4ccccc34)C(=O)N[C@@H](CCC(N)=O)C(N)=O)NC(=O)[C@H](CCC(N)=O)NC(=O)[C@H](Cc3ccccc3)NC(=O)[C@H](C)NC(=O)[C@H](C)NC(=O)[C@H](CCC(=O)O)NC(=O)[C@H](CC(=O)O)NC1=O)NC(=O)[C@H](CC(N)=O)NC(=O)[C@H](CC(=O)O)NC2=O (stereo partly drawn) [I-1531, Ac-PL3-Asp-Asn-B5-Asp-Glu-Ala-Ala-Phe-Gln-S8-Phe-BztA-Gln-NH2] | 84 nM | > 20000 nM |
| CC(=O)N1CCC[C@]12CC=CCCCC1(CCCC=CCCCCCC[C@@](C)(C(=O)N[C@@H](Cc3ccccc3)C(=O)N[C@@H](Cc3csc4ccccc34)C(=O)N[C@@H](CCC(N)=O)C(N)=O)NC(=O)[C@H](CCC(N)=O)NC(=O)[C@H](Cc3ccccc3)NC(=O)[C@H](C)NC(=O)[C@H](C)NC(=O)[C@H](CCC(=O)O)NC(=O)[C@H](CC(=O)O)NC1=O)NC(=O)[C@H](CC(N)=O)NC(=O)[C@H](CC(=O)O)NC2=O (stereo partly drawn) [I-1532, Ac-PL3-Asp-Asn-B5-Asp-Glu-Ala-Ala-Phe-Gln-S8-Phe-BztA-Gln-NH2] | 49 nM | > 20000 nM |
| CC(=O)N1CCC[C@]12CC=CCCCC1(CCCC=CCCCCCC[C@@](C)(C(=O)N[C@@H](Cc3ccccc3)C(=O)N[C@@H](Cc3csc4ccccc34)C(=O)N[C@@H](CCC(N)=O)C(N)=O)NC(=O)[C@H](CCO)NC(=O)[C@H](Cc3ccccc3)NC(=O)[C@H](C)NC(=O)[C@H](C)NC(=O)[C@H](CCC(=O)O)NC(=O)[C@H](CC(=O)O)NC1=O)NC(=O)[C@H](CC(N)=O)NC(=O)[C@H](CC(=O)O)NC2=O (stereo partly drawn) [I-1534, Ac-PL3-Asp-Asn-B5-Asp-Glu-Ala-Ala-Phe-Hse-S8-Phe-BztA-Gln-NH2] | 181 nM | > 20000 nM |
| CC(=O)N1CCC[C@]12CC=CCCCC1(CCCC=CCCCCCC[C@@](C)(C(=O)N[C@@H](Cc3ccccc3)C(=O)N[C@@H](Cc3csc4ccccc34)C(=O)N[C@@H](CCC(N)=O)C(N)=O)NC(=O)[C@H](CCC(N)=O)NC(=O)[C@H](Cc3ccccc3)NC(=O)[C@H](C)NC(=O)[C@H](C)NC(=O)[C@H](CCC(=O)O)NC(=O)[C@H](CC(=O)O)NC1=O)NC(=O)[C@H](CCC(N)=O)NC(=O)[C@H](CC(=O)O)NC2=O (stereo partly drawn) [I-1539, Ac-PL3-Asp-Gln-B5-Asp-Glu-Ala-Ala-Phe-Gln-S8-Phe-BztA-Gln-NH2] | 36 nM | > 20000 nM |
| CC(=O)N1CCC[C@]12CC=CCCCC1(CCCC=CCCCCCC[C@@](C)(C(=O)N[C@@H](Cc3ccccc3)C(=O)N[C@@H](Cc3csc4ccccc34)C(=O)N[C@@H](CCC(N)=O)C(N)=O)NC(=O)[C@H](CCC(N)=O)NC(=O)[C@H](Cc3ccccc3)NC(=O)[C@H](C)NC(=O)[C@H](C)NC(=O)[C@H](CCC(=O)O)NC(=O)[C@H](CC(=O)O)NC1=O)NC(=O)[C@H](CCO)NC(=O)[C@H](CC(=O)O)NC2=O (stereo partly drawn) [I-1544, Ac-PL3-Asp-Hse-B5-Asp-Glu-Ala-Ala-Phe-Gln-S8-Phe-BztA-Gln-NH2] | 61 nM | > 20000 nM |

Further lines, results first:

| IC50 [1] | IC50 [2] | SMILES |
| --- | --- | --- |
| 61 nM | 36900 nM | CC(=O)N1CCC[C@]12CC=CCCCC1(CCCC=CCCCCCC[C@@](C)(C(=O)N[C@@H](Cc3ccccc3)C(=O)N[C@@H](Cc3csc4ccccc34)C(=O)N[C@@H](CCC(N)=O)C(N)=O)NC(=O)[C@H](CCO)NC(=O)[C@H](Cc3ccccc3)NC(=O)[C@H](C)NC(=O)[C@H](C)NC(=O)[C@H](CCC(=O)O)NC(=O)[C@H](CC(=O)O)NC1=O)NC(=O)[C@H](CO)NC(=O)[C@H](CC(=O)O)NC2=O (stereo partly drawn) [I-1530, Ac-PL3-Asp-Ser-B5-Asp-Glu-Ala-Ala-Phe-Hse-S8-Phe-BztA-Gln-NH2] |
| 76 nM | > 20000 nM | CC(=O)N1CCC[C@]12CC=CCCCC1(CCCC=CCCCCCC[C@@](C)(C(=O)N[C@@H](Cc3ccccc3)C(=O)N[C@@H](Cc3csc4ccccc34)C(=O)N[C@@H](CCC(N)=O)C(N)=O)NC(=O)[C@H](CC(C)C)NC(=O)[C@H](Cc3ccccc3)NC(=O)[C@H](C)NC(=O)[C@H](C)NC(=O)[C@H](CCC(=O)O)NC(=O)[C@H](CC(=O)O)NC1=O)NC(=O)[C@H](CC(N)=O)NC(=O)[C@H](CC(=O)O)NC2=O (stereo partly drawn) [I-1533, Ac-PL3-Asp-Asn-B5-Asp-Glu-Ala-Ala-Phe-Leu-S8-Phe-BztA-Gln-NH2] |
| 72 nM | > 20000 nM | CC(=O)N1CCC[C@]12CC=CCCCC1(CCCC=CCCCCCC[C@@](C)(C(=O)N[C@@H](Cc3ccccc3)C(=O)N[C@@H](Cc3csc4ccccc34)C(=O)N[C@@H](CCC(N)=O)C(N)=O)NC(=O)[C@H](CCO)NC(=O)[C@H](Cc3ccccc3)NC(=O)[C@H](C)NC(=O)[C@H](C)NC(=O)[C@H](CCC(=O)O)NC(=O)[C@H](CC(=O)O)NC1=O)NC(=O)[C@H](CC(N)=O)NC(=O)[C@H](CC(=O)O)NC2=O (stereo partly drawn) [I-1535, Ac-PL3-Asp-Asn-B5-Asp-Glu-Ala-Ala-Phe-Hse-S8-Phe-BztA-Gln-NH2] |
| 31 nM | 13900 nM | CC(=O)N1CCC[C@]12CC=CCCCC1(CCCC=CCCCCCC[C@@](C)(C(=O)N[C@@H](Cc3ccccc3)C(=O)N[C@@H](Cc3csc4ccccc34)C(=O)N[C@@H](CCC(N)=O)C(N)=O)NC(=O)[C@H](CCO)NC(=O)[C@H](Cc3ccccc3)NC(=O)[C@H](C)NC(=O)[C@H](C)NC(=O)[C@H](CCC(=O)O)NC(=O)[C@H](CC(=O)O)NC1=O)NC(=O)[C@H](CCC(C)C)NC(=O)[C@H](CC(=O)O)NC2=O (stereo partly drawn) [I-1537, Ac-PL3-Asp-Hleu-B5-Asp-Glu-Ala-Ala-Phe-Hse-S8-Phe-BztA-Gln-NH2] |
| 21 nM | 11800 nM | CC(=O)N1CCC[C@]12CC=CCCCC1(CCCC=CCCCCCC[C@@](C)(C(=O)N[C@@H](Cc3ccccc3)C(=O)N[C@@H](Cc3csc4ccccc34)C(=O)N[C@@H](CCC(N)=O)C(N)=O)NC(=O)[C@H](CCO)NC(=O)[C@H](Cc3ccccc3)NC(=O)[C@H](C)NC(=O)[C@H](C)NC(=O)[C@H](CCC(=O)O)NC(=O)[C@H](CC(=O)O)NC1=O)NC(=O)[C@H](CCC(C)C)NC(=O)[C@H](CC(=O)O)NC2=O (stereo partly drawn) [I-1538, Ac-PL3-Asp-Hleu-B5-Asp-Glu-Ala-Ala-Phe-Hse-S8-Phe-BztA-Gln-NH2] |
| 26 nM | > 20000 nM | CC(=O)N1CCC[C@]12CC=CCCCC1(CCCC=CCCCCCC[C@@](C)(C(=O)N[C@@H](Cc3ccccc3)C(=O)N[C@@H](Cc3csc4ccccc34)C(=O)N[C@@H](CCC(N)=O)C(N)=O)NC(=O)[C@H](CCC(N)=O)NC(=O)[C@H](Cc3ccccc3)NC(=O)[C@H](C)NC(=O)[C@H](C)NC(=O)[C@H](CCC(=O)O)NC(=O)[C@H](CC(=O)O)NC1=O)NC(=O)[C@H](CCO)NC(=O)[C@H](CC(=O)O)NC2=O (stereo partly drawn) [I-1545, Ac-PL3-Asp-Hse-B5-Asp-Glu-Ala-Ala-Phe-Gln-S8-Phe-BztA-Gln-NH2] |
| 71 nM | 37900 nM | CC(=O)N1CCC[C@]12CC=CCCCC1(CCCC=CCCCCCC[C@@](C)(C(=O)N[C@@H](Cc3ccccc3)C(=O)N[C@@H](Cc3csc4ccccc34)C(=O)N[C@@H](CCC(N)=O)C(N)=O)NC(=O)[C@H](CC(C)C)NC(=O)[C@H](Cc3ccccc3)NC(=O)[C@H](C)NC(=O)[C@H](C)NC(=O)[C@H](CCC(=O)O)NC(=O)[C@H](CC(=O)O)NC1=O)NC(=O)[C@H](CCO)NC(=O)[C@H](CC(=O)O)NC2=O (stereo partly drawn) [I-1546, Ac-PL3-Asp-Hse-B5-Asp-Glu-Ala-Ala-Phe-Leu-S8-Phe-BztA-Gln-NH2] |
| 68 nM | > 20000 nM | CC(=O)N1CCC[C@]12CC=CCCCC1(CCCC=CCCCCCC[C@@](C)(C(=O)N[C@@H](Cc3ccccc3)C(=O)N[C@@H](Cc3csc4ccccc34)C(=O)N[C@@H](CCC(N)=O)C(N)=O)NC(=O)[C@H](CCO)NC(=O)[C@H](Cc3ccccc3)NC(=O)[C@H](C)NC(=O)[C@H](C)NC(=O)[C@H](CCC(=O)O)NC(=O)[C@H](CC(=O)O)NC1=O)NC(=O)[C@H](CCO)NC(=O)[C@H](CC(=O)O)NC2=O (stereo partly drawn) [I-1547, Ac-PL3-Asp-Hse-B5-Asp-Glu-Ala-Ala-Phe-Hse-S8-Phe-BztA-Gln-NH2] |
| 28 nM | > 20000 nM | CC(=O)N1CCC[C@]12CC=CCCCC1(CCCC=CCCCCCC[C@@](C)(C(=O)N[C@@H](Cc3ccccc3)C(=O)N[C@@H](Cc3csc4ccccc34)C(=O)N[C@@H](CCC(N)=O)C(N)=O)NC(=O)[C@H](CCO)NC(=O)[C@H](Cc3ccccc3)NC(=O)[C@H](C)NC(=O)[C@H](C)NC(=O)[C@H](CCC(=O)O)NC(=O)[C@H](CC(=O)O)NC1=O)NC(=O)[C@H](CCO)NC(=O)[C@H](CC(=O)O)NC2=O (stereo partly drawn) [I-1548, Ac-PL3-Asp-Hse-B5-Asp-Glu-Ala-Ala-Phe-Hse-S8-Phe-BztA-Gln-NH2] |
